Assay: xn = mol fraction of the nth substance listed, in the solute-free solvent

COc1cc2c(cc1OC)-c1cc3ccc(OC)c(OC)c3c[n+]1CC2.[Cl-] + CCO + O
solubility (g/100 g solution)
Conditions | 283.15 K | 288.15 K | 293.15 K | 298.15 K | 303.15 K | 308.15 K | 313.15 K | 318.15 K | 323.15 K | 328.15 K
x2 = 0.04165 | 1.22 | 1.49 | 1.87 | 2.33 | 2.87 | 3.46 | 4.17 | 4.96 | 5.87 | 6.89
x2 = 0.08908 | 1.26 | 1.54 | 1.93 | 2.4 | 2.94 | 3.56 | 4.28 | 5.08 | 6.01 | 7.05
x2 = 0.1436 | 1.34 | 1.62 | 2.03 | 2.52 | 3.14 | 3.77 | 4.52 | 5.34 | 6.28 | 7.33
x2 = 0.2068 | 1.44 | 1.74 | 2.17 | 2.68 | 3.27 | 3.94 | 4.73 | 5.59 | 6.6 | 7.72
x2 = 0.2812 | 1.57 | 1.89 | 2.37 | 2.96 | 3.58 | 4.32 | 5.15 | 6.02 | 7.08 | 8.21
x2 = 0.3698 | 1.72 | 2.06 | 2.54 | 3.13 | 3.8 | 4.55 | 5.44 | 6.39 | 7.51 | 8.77
x2 = 0.4772 | 1.88 | 2.23 | 2.75 | 3.38 | 4.16 | 5.02 | 5.95 | 6.91 | 8.09 | 9.31
x2 = 0.6101 | 2.02 | 2.39 | 2.94 | 3.6 | 4.33 | 5.16 | 6.14 | 7.16 | 8.39 | 9.76
x2 = 0.7788 | 2.11 | 2.48 | 3.08 | 3.79 | 4.53 | 5.41 | 6.4 | 7.47 | 8.65 | 9.96

Nc1cccc(S(=O)(=O)c2cccc(N)c2)c1 + CCO + O
solubility (g/100 g solution)
Conditions | 283.15 K | 288.15 K | 293.15 K | 298.15 K | 303.15 K | 308.15 K | 313.15 K | 318.15 K | 323.15 K | 328.15 K
x2 = 0.04165 | 0.0709 | 0.0964 | 0.128 | 0.168 | 0.215 | 0.284 | 0.356 | 0.459 | 0.577 | 0.72
x2 = 0.08908 | 0.129 | 0.173 | 0.226 | 0.3 | 0.383 | 0.491 | 0.619 | 0.788 | 0.987 | 1.23
x2 = 0.1436 | 0.209 | 0.277 | 0.357 | 0.462 | 0.591 | 0.744 | 0.941 | 1.16 | 1.45 | 1.78
x2 = 0.2068 | 0.318 | 0.41 | 0.509 | 0.646 | 0.822 | 1.02 | 1.25 | 1.51 | 1.84 | 2.24
x2 = 0.2812 | 0.455 | 0.561 | 0.706 | 0.874 | 1.07 | 1.3 | 1.56 | 1.89 | 2.26 | 2.69
x2 = 0.3698 | 0.604 | 0.732 | 0.907 | 1.11 | 1.34 | 1.64 | 1.92 | 2.33 | 2.7 | 3.21
x2 = 0.4772 | 0.76 | 0.93 | 1.14 | 1.34 | 1.62 | 1.92 | 2.28 | 2.69 | 3.15 | 3.7
x2 = 0.6101 | 0.914 | 1.09 | 1.31 | 1.55 | 1.88 | 2.19 | 2.57 | 3.03 | 3.51 | 4.06
x2 = 0.7788 | 1.1 | 1.29 | 1.52 | 1.79 | 2.08 | 2.43 | 2.81 | 3.25 | 3.75 | 4.28

OCCN(CCO)c1nc(N2CCCCC2)c2nc(N(CCO)CCO)nc(N3CCCCC3)c2n1 + CCO + O
solubility (g/100 g solution)
Conditions | 293.15 K | 298.15 K | 303.15 K | 308.15 K | 313.15 K | 318.15 K | 323.15 K | 328.15 K
x2 = 0.3 | 1.64 | 1.81 | 2.52 | 3.79 | 5.33 | 8.14 | 12.5 | 18
x2 = 0.4 | 2.59 | 3.74 | 5.59 | 7.99 | 10.8 | 16 | 22.2 | 29.9
x2 = 0.5 | 4.37 | 6.13 | 8.44 | 11.4 | 15.2 | 20.7 | 28.1 | 36.2
x2 = 0.6 | 5.48 | 7.13 | 9.58 | 13.1 | 16.6 | 22.2 | 29.3 | 37
x2 = 0.7 | 5.8 | 7.49 | 9.93 | 13.1 | 16.7 | 21.9 | 28.4 | 35.8
x2 = 0.8 | 5.06 | 6.52 | 8.76 | 11.6 | 14.9 | 19.3 | 25.6 | 32.2
x2 = 0.9 | 4.28 | 5.36 | 7.23 | 9.43 | 11.7 | 15.1 | 20.7 | 26.7

From the CheMixHub drug solubility set
